Laboratory results published in patent publication US7582655B2, “Antineoplastic compounds” (University of Saskatchewan, priority 2005, dated 2009).
Like-named read-outs stand apart in the source and are kept apart here.

Tests used:
human tumour cell lines = test: Panel of human tumour cell lines, all cell lines (mean graph midpoint); format: cell-based
Procedure: A number of compounds of the invention were further assessed against numerous human malignant cell lines. An average of 49 cell lines from nine different neoplastic diseases, namely leukemia, melanoma, non-small cell lung, colon, central nervous system, ovarian, renal, prostate, and breast cancers were employed.
(§1) In addition, both 5-fluorouracil and melphalan were evaluated towards 57 cell lines. […] MG MID is the average of the potencies of the compound to approximately 50 neoplastic cell lines.

COLO 205 = test: Human tumour cell line panel, colon cancer COLO 205; format: cell-based
Procedure: as §1

HCT 116 = test: Human tumour cell line panel, colon cancer HCT 116; format: cell-based
Procedure: as §1

HCT 15 = test: Human tumour cell line panel, colon cancer HCT 15; format: cell-based; conditions: read-out: Colon cancer cells, IC50(μM) HCT 15
Procedure: as §1

KM 12 = test: Human tumour cell line panel, colon cancer KM 12; format: cell-based
Procedure: as §1

SW 620 = test: Human tumour cell line panel, colon cancer SW 620; format: cell-based
Procedure: as §1

K 562 = test: Human tumour cell line panel, leukemic K 562; format: cell-based
Procedure: as §1

RPMI 8226 = test: Human tumour cell line panel, leukemic RPMI 8226; format: cell-based
Procedure: as §1

HL 60 = test: Human tumour cell line panel, leukemic HL 60; format: cell-based
Procedure: as §1

[1] = system: human squamous cell carcinomas HSC-2; test: Cytotoxicity CC50, MTT assay, HSC-2
Procedure: (§2) In addition, the compounds were evaluated against human squamous cell carcinomas (HSC-2 and HSC-4) and human promyelocytic leukemia neoplasms (HL-60) and compared with normal cells, i.e. human gingival fibroblasts (HGF), human pulp cells (HPC) and human periodontal ligament fibroblasts (HPLF).
(§3) MTT stands for 3-(4,5-dimethylthiazol-2-yl)-2,5-diphenyltetrazolium bromide). The cells were incubated with varying concentrations of the compounds along with untreated cells for 24 h and the absorbance at 540 nm measured. In the case of the HL-60 assay, the trypan blue exclusion method was followed and cell viability was determined using a haemocytometer. The CC50 values were obtained from dose-response curves (Sakagami, H.; Satoh, K.; Ohata, H.; Takahashi, H.; Yoshida, H.; Iida, M.; Kuribayashi, N.; Sakagami, T.; Momose, K.; Takeda, M. Anticancer Res. 1996, 16, 2635-2644). The general methods used in culturing the cells employed in these cytotoxicity experiments have been described previously (Kawase, M.; Sakagami, H.; Motohashi, N.; Hauer, H.; Chatterjee, S. S.; Spengler, G.; Vigyikanne, A. V.; Molnár, A.; Molnár, J. In Vivo 2005, 19, 705-712; and Takeuchi, R.; Hoshijima, H.; Onuki, N.; Nagasaka, H.; Chowdhury, S. A.; Kawase, M.; Sakagami, H. Anticancer Res. 2005, 25, 4037-4042). In brief, the malignant cells were obtained from Professor Nagumo, Showa University, Japan. The HGF, HPC and HPLF cells were prepared from human periodontal tissue after obtaining informed consent according to the guidelines of Meikai University Ethics Committee, Japan (No. 0206). Since normal cells have a short lifespan, cells at the 3-7 population doubling time were used. With the exception of the HL-60 neoplasm, the cells were cultured in DMEM containing heat-inactivated FBS (10%) at 37° C. in a humidified carbon dioxide atmosphere and subcultured by trypsinization. The HL-60 cells were cultured in a similar fashion except that RPMI 1640 media was employed.

[2] = system: human squamous cell carcinomas HSC-4; test: Cytotoxicity CC50, MTT assay, HSC-4
Procedure: as §2, §3

[3] = system: human promyelocytic leukemia HL-60; test: Cytotoxicity CC50, trypan blue exclusion, HL-60
Procedure: as §2, §3

[4] = system: human gingival fibroblasts (HGF); test: Cytotoxicity CC50, MTT assay, normal HGF cells
Procedure: as §2, §3

human pulp cells (HPC) = test: Cytotoxicity CC50, MTT assay, normal HPC cells
Procedure: as §2, §3

[5] = system: human periodontal ligament fibroblasts (HPLF); test: Cytotoxicity CC50, MTT assay, normal HPLF cells
Procedure: as §2, §3

[6] = system: HSC-2, HSC-4 and HL-60 malignant cells; test: Average CC50 for malignant cells; conditions: average CC50 for HSC-2, HSC-4 and HL-60 malignant cells
Procedure: as §2, §3

SR = test: Human tumour cell line panel, leukemic SR; format: cell-based
Procedure: as §1

HCC 2998 = test: Human tumour cell line panel, colon cancer HCC 2998; format: cell-based
Procedure: as §1

[7] = mean graph midpoint, average of 49 (38-59) human tumour cell lines, 48 h incubation, read-out: All cell lines IC50
[8] = 48 h; read-out: Colon cancer cells, IC50(μM) COLO 205
[9] = 48 h; read-out: Colon cancer cells, IC50(μM) HCT 116
[10] = read-out: Colon cancer cells, IC50(μM) KM 12
[11] = 48 h; read-out: Colon cancer cells, IC50(μM) SW 620
[12] = 48 h; read-out: Leukemic cells, IC50(μM) K 562
[13] = 48 h; read-out: Leukemic cells, IC50(μM) RPMI 8226
[14] = 48 h; read-out: Leukemic cells, IC50(μM) HL 60
[15] = read-out: CC50(μM) HSC-2, 24 h, MTT, average of two determinations
[16] = read-out: CC50(μM) HSC-4, 24 h, MTT, average of two determinations
[17] = read-out: CC50(μM) HL-60, 24 h, trypan blue exclusion, average of two determinations
[18] = read-out: CC50(μM) HGF, normal cells, 24 h, MTT
[19] = read-out: CC50(μM) HPC, normal cells, 24 h, MTT
[20] = read-out: CC50(μM) HPLF, normal cells, 24 h, MTT
[21] = 48 h; read-out: Colon cancer cells, IC50(μM) KM 12

1-[4-{2-(4-Morpholinyl)ethoxy}phenylcarbonyl]-3,5-bis(phenylmethylene)-4-piperidone hydrochloride hemihydrate [Compound 6a]
IC50 (human tumour cell lines; [7]): > 2.63 µM
IC50 (COLO 205; [8]): 22.9 µM
IC50 (HCT 116; [9]): 0.339 µM
IC50 (HCT 15; 48 h): 1.45 µM
IC50 (KM 12; [10]): 0.129 µM
IC50 (SW 620; [11]): 0.191 µM
IC50 (K 562; [12]): 0.158 µM
IC50 (RPMI 8226; [13]): 0.123 µM
IC50 (HL 60; [14]): 0.562 µM
CC50 [1, 15]: 2.4 µM
CC50 [2, 16]: 2.4 µM
CC50 [3, 17]: 1.2 µM
CC50 [4, 18]: 83 µM
CC50 (human pulp cells (HPC); [19]): 95 µM
CC50 [5, 20]: 30 µM
CC50(μM) ave [6]: 2.0 µM

3,5-bis(4-Methyl phenylmethylene)-1-[4-{2-(4-morpholinyl)ethoxy}phenylcarbonyl]-4-piperidone hydrochloride hemihydrate [Compound 6d]
IC50 (human tumour cell lines; [7]): < 0.708 µM
IC50 (COLO 205; [8]): 1.15 µM
IC50 (HCT 116; [9]): 2.45 µM
IC50 (HCT 15; 48 h): 0.832 µM
IC50 (KM 12; [10]): 1.12 µM
IC50 (SW 620; [11]): 1.02 µM
IC50 (K 562; [12]): 0.275 µM
IC50 (RPMI 8226; [13]): 0.115 µM
IC50 (HL 60; [14]): 1.1 µM
IC50 (SR; 48 h; read-out: Leukemic cells, IC50(μM) SR): 0.245 µM
CC50 [1, 15]: 1.6 µM
CC50 [2, 16]: 2 µM
CC50 [3, 17]: 1.2 µM
CC50 [4, 18]: 10 µM
CC50 (human pulp cells (HPC); [19]): 49 µM
CC50 [5, 20]: 12 µM
CC50(μM) ave [6]: 1.6 µM

O=c1[nH]cc(F)c(=O)[nH]1 [5-Fluorouracil, 5-fluorouracil, reference compound]
IC50 (human tumour cell lines; [7]): > 29.5 µM
S.I. (selectivity index) (human tumour cell lines; ratio of the IC50 figures for the least and most sensitive cell lines): >4365
IC50 (COLO 205; Homo sapiens, COLO 205, 48 h; read-out: Colon cancer cells, IC50(μM) COLO 205): 3.39 µM
IC50 (HCT 116; Homo sapiens, HCT-116, 48 h; read-out: Colon cancer cells, IC50(μM) HCT 116): 2.04 µM
IC50 (HCT 15; Homo sapiens, HCT-15, 48 h): 6.61 µM
IC50 (KM 12; Homo sapiens, KM12, 48 h; read-out: Colon cancer cells, IC50(μM) KM 12): 7.94 µM
IC50 (SW 620; Homo sapiens, SW-620, 48 h; read-out: Colon cancer cells, IC50(μM) SW 620): 18.6 µM
IC50 (HCC 2998; Homo sapiens, HCC 2998, 48 h; read-out: Colon cancer cells, IC50(μM) HCC 2998): 5.75 µM
IC50 (K 562; Homo sapiens, K562, 48 h; read-out: Leukemic cells, IC50(μM) K 562): 126 µM
IC50 (RPMI 8226; Homo sapiens, RPMI-8226, 48 h; read-out: Leukemic cells, IC50(μM) RPMI 8226): 3.55 µM
IC50 (HL 60; Homo sapiens, HL-60, 48 h; read-out: Leukemic cells, IC50(μM) HL 60): 85.1 µM
IC50 (SR; Homo sapiens, SR, 48 h; read-out: Leukemic cells, IC50(μM) SR): 60.3 µM

Cc1ccc(C=C2CN(C(=O)c3ccc(OCCN4CCCCC4)cc3)CC(=Cc3ccc(C)cc3)C2=O)cc1.Cc1ccc(C=C2CN(C(=O)c3ccc(OCCN4CCCCC4)cc3)CC(=Cc3ccc(C)cc3)C2=O)cc1.Cl.Cl.O [Compound 5d, 3,5-bis(4-Methylphenylmethylene)-1-[4-{1-piperidinyl)ethoxy}phenylcarbonyl]-4-piperidone hydrochloride hemihydrate]
IC50 (human tumour cell lines; [7]): 1.38 µM
IC50 (COLO 205; [8]): 6.92 µM
IC50 (HCT 116; [9]): 1.58 µM
IC50 (HCT 15; 48 h): 1.07 µM
IC50 (KM 12; [21]): 0.148 µM
IC50 (SW 620; [11]): 0.339 µM
IC50 (K 562; [12]): 0.589 µM
IC50 (RPMI 8226; [13]): 0.123 µM
IC50 (HL 60; [14]): 0.933 µM
CC50 [1]: 2.9 µM
CC50 [2]: 4.1 µM
CC50 [3]: 2.3 µM
CC50 [4]: 6 µM
CC50 (human pulp cells (HPC)): 15 µM
CC50 [5]: 5.5 µM

Cl.O=C1C(=Cc2ccc(Cl)cc2)CN(C(=O)c2ccc(OCCN3CCOCC3)cc2)CC1=Cc1ccc(Cl)cc1 [Compound 6b, 3,5-bis(4-Chlorophenylmethylene)-1-[4-{2-(4-morpholinyl)ethoxy}phenylcarbonyl-4-piperidone hydrochloride]
IC50 (human tumour cell lines; [7]): < 0.562 µM
IC50 (HCT 116; [9]): 7.25 µM
IC50 (HCT 15; 48 h): 2.19 µM
IC50 (KM 12; [21]): 2.29 µM
IC50 (SW 620; [11]): 1.45 µM
IC50 (HCC 2998; 48 h; read-out: Colon cancer cells, IC50(μM) HCC 2998): < 0.005 µM
IC50 (K 562; [12]): 6.76 µM
IC50 (RPMI 8226; [13]): 0.132 µM
IC50 (HL 60; [14]): 5.5 µM
CC50 [1]: 71 µM
CC50 [2]: 18 µM
CC50 [3]: 36 µM
CC50 [4]: 400 µM
CC50 (human pulp cells (HPC)): > 400 µM
CC50 [5]: 360 µM

N[C@@H](Cc1ccc(N(CCCl)CCCl)cc1)C(=O)O [Melphalan, reference compound]
IC50 (human tumour cell lines; Homo sapiens, 48 h, read-out: All cell lines IC50(μM)): 26.9 µM
IC50 (COLO 205; Homo sapiens, COLO 205, 48 h, read-out: Colon cancer cells, IC50(μM) COLO 205): 66.1 µM
IC50 (HCT 116; Homo sapiens, HCT-116, 48 h, read-out: Colon cancer cells, IC50(μM) HCT 116): 30.2 µM
IC50 (KM 12; Homo sapiens, KM12, 48 h, read-out: Colon cancer cells, IC50(μM) KM 12): 43.7 µM
IC50 (SW 620; Homo sapiens, SW-620, 48 h, read-out: Colon cancer cells, IC50(μM) SW 620): 38.9 µM
IC50 (HCC 2998; Homo sapiens, HCC 2998, 48 h, read-out: Colon cancer cells, IC50(μM) HCC 2998): 41.7 µM
IC50 (K 562; Homo sapiens, K562, 48 h, read-out: Leukemic cells, IC50(μM) K 562): 43.7 µM
IC50 (RPMI 8226; Homo sapiens, RPMI-8226, 48 h, read-out: Leukemic cells, IC50(μM) RPMI 8226): 66.1 µM
IC50 (HL 60; Homo sapiens, HL-60, 48 h, read-out: Leukemic cells, IC50(μM) HL 60): 2.04 µM
IC50 (SR; Homo sapiens, SR, 48 h, read-out: Leukemic cells, IC50(μM) SR): 1.86 µM
CC50 ([1]; Homo sapiens, HSC-2, 24 h, read-out: CC50(μM) HSC-2): 35 µM
CC50 ([2]; Homo sapiens, HSC-4, 24 h, read-out: CC50(μM) HSC-4): 81 µM
CC50 ([3]; Homo sapiens, HL-60, 24 h, read-out: CC50(μM) HL-60): 6 µM
CC50 [4, 18]: > 200 µM
CC50 (human pulp cells (HPC); [19]): > 200 µM
CC50 [5, 20]: > 200 µM
CC50(μM) ave [6]: 40.7 µM
